Measurements reported in PubChem BioAssay (NCI).
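Five concentrations, 48 hours, 96-well plates. GI50: concentration for 50% inhibition of growth. TGI: total growth inhibition.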

Tests used:
Assay in all cases: DTP human tumour cell line panel, 48 h
786-0 renal = test system: 786-0 renal
A498 renal = test system: A498 renal
A549 NSCLC = test system: A549 NSCLC
ACHN renal = test system: ACHN renal
BT-549 breast = test system: BT-549 breast
CAKI-1 renal = test system: CAKI-1 renal
COLO 205 colon = test system: COLO 205 colon
DU-145 prostate = test system: DU-145 prostate
EKVX NSCLC = test system: EKVX NSCLC
HCC-2998 colon = test system: HCC-2998 colon
HCT-116 colon = test system: HCT-116 colon
HCT-15 colon = test system: HCT-15 colon
HL-60(TB) leukemia = test system: HL-60(TB) leukemia
HOP-62 NSCLC = test system: HOP-62 NSCLC
HOP-92 NSCLC = test system: HOP-92 NSCLC
HS 578T breast = test system: HS 578T breast
KM12 colon = test system: KM12 colon
LOX IMVI melanoma = test system: LOX IMVI melanoma
M14 melanoma = test system: M14 melanoma
MCF7 breast = test system: MCF7 breast
MDA-MB-435 = test system: MDA-MB-435
NCI-H226 lung = test system: NCI-H226 lung
NCI-H23 lung = test system: NCI-H23 lung
NCI-H522 lung = test system: NCI-H522 lung
NCI/ADR-RES ovarian = test system: NCI/ADR-RES ovarian
OVCAR-3 ovarian = test system: OVCAR-3 ovarian
OVCAR-4 ovarian = test system: OVCAR-4 ovarian
OVCAR-8 ovarian = test system: OVCAR-8 ovarian
RPMI-8226 leukemia = test system: RPMI-8226 leukemia
RXF 393 renal = test system: RXF 393 renal
SF-268 CNS = test system: SF-268 CNS
SF-295 CNS = test system: SF-295 CNS
SF-539 CNS = test system: SF-539 CNS
SK-MEL-2 melanoma = test system: SK-MEL-2 melanoma
SK-MEL-28 melanoma = test system: SK-MEL-28 melanoma
SNB-19 CNS = test system: SNB-19 CNS
SNB-75 CNS = test system: SNB-75 CNS
T-47D breast = test system: T-47D breast
TK-10 renal = test system: TK-10 renal
U251 CNS = test system: U251 CNS
UACC-257 melanoma = test system: UACC-257 melanoma
UACC-62 melanoma = test system: UACC-62 melanoma
CCRF-CEM leukemia = test system: CCRF-CEM leukemia
HT29 colon = test system: HT29 colon
IGROV1 ovarian = test system: IGROV1 ovarian
K-562 leukemia = test system: K-562 leukemia
MALME-3M melanoma = test system: MALME-3M melanoma
MDA-MB-231 breast = test system: MDA-MB-231 breast
MOLT-4 leukemia = test system: MOLT-4 leukemia
NCI-H460 lung = test system: NCI-H460 lung
OVCAR-5 ovarian = test system: OVCAR-5 ovarian
SK-MEL-5 melanoma = test system: SK-MEL-5 melanoma
SK-OV-3 ovarian = test system: SK-OV-3 ovarian
SN12C renal = test system: SN12C renal
SW-620 colon = test system: SW-620 colon
UO-31 renal = test system: UO-31 renal

`COc1cc2c(cc1OCCCCCOc1cc3c(cc1OC)C(=O)N1CCC[C@H]1C(=O)N3)N=C[C@@H]1CCCN1C2=O` gave a TGI (786-0 renal) of 4.71 µM, a TGI (A498 renal) of 1.1 µM and a TGI (A549 NSCLC) greater than 100 µM. It also gave a TGI (ACHN renal) of 4.05 µM, a TGI (BT-549 breast) of 6.67 µM and a TGI (CAKI-1 renal) of 4.25 µM. For the same compound, the TGI (COLO 205 colon) was 0.0509 µM, the TGI (DU-145 prostate) was greater than 100 µM and the TGI (EKVX NSCLC) was 9.54 µM. It also gave a TGI (HCC-2998 colon) of 20.9 µM, a TGI (HCT-116 colon) greater than 100 µM and a TGI (HCT-15 colon) greater than 100 µM. The TGI (HL-60(TB) leukemia) was 1.51 µM, the TGI (HOP-62 NSCLC) was 26.3 µM and the TGI (HOP-92 NSCLC) was 0.0973 µM. The TGI (HS 578T breast) was 4.17 µM, the TGI (KM12 colon) was 37.1 µM and the TGI (LOX IMVI melanoma) was 0.997 µM. For the same compound, the TGI (M14 melanoma) was 0.521 µM, the TGI (MCF7 breast) was 0.261 µM and the TGI (MDA-MB-435) was 0.284 µM. The TGI (NCI-H226 lung) was 0.75 µM, the TGI (NCI-H23 lung) was 1.89 µM and the TGI (NCI-H522 lung) was 0.0419 µM. The TGI (NCI/ADR-RES ovarian) was 33.1 µM, the TGI (OVCAR-3 ovarian) was 0.575 µM and the TGI (OVCAR-4 ovarian) was 0.716 µM. It also gave a TGI (OVCAR-8 ovarian) of 31.5 µM, a TGI (RPMI-8226 leukemia) of 0.179 µM and a TGI (RXF 393 renal) of 0.413 µM. It also gave a TGI (SF-268 CNS) of 10.4 µM, a TGI (SF-295 CNS) of 5.59 µM and a TGI (SF-539 CNS) of 0.0562 µM. It also gave a TGI (SK-MEL-2 melanoma) of 0.666 µM, a TGI (SK-MEL-28 melanoma) of 0.332 µM and a TGI (SNB-19 CNS) greater than 100 µM. The TGI (SNB-75 CNS) was 0.0588 µM, the TGI (T-47D breast) was greater than 100 µM and the TGI (TK-10 renal) was 0.253 µM. For the same compound, the TGI (U251 CNS) was 0.51 µM, the TGI (UACC-257 melanoma) was 0.707 µM and the TGI (UACC-62 melanoma) was 0.193 µM.
Work on `O=C(c1ccc2ccccc2c1)c1c(C(F)(F)F)n([O-])c2cc(Cl)c(Cl)cc2[n+]1=O` yielded a GI50 (786-0 renal) of 1.69 µM, a TGI (786-0 renal) of 3.06 µM and a GI50 (A498 renal) of 1.96 µM. For the same compound, the TGI (A498 renal) was 4.68 µM, the GI50 (A549 NSCLC) was 1.63 µM and the TGI (A549 NSCLC) was 2.98 µM. The GI50 (ACHN renal) was 1.59 µM, the TGI (ACHN renal) was 2.94 µM and the GI50 (BT-549 breast) was 1.48 µM. The TGI (BT-549 breast) was 2.8 µM, the GI50 (CAKI-1 renal) was 1.35 µM and the TGI (CAKI-1 renal) was 2.63 µM. The GI50 (CCRF-CEM leukemia) was 2.41 µM, the TGI (CCRF-CEM leukemia) was 4.78 µM and the GI50 (DU-145 prostate) was 1.57 µM. The TGI (DU-145 prostate) was 2.9 µM, the GI50 (EKVX NSCLC) was 2.04 µM and the TGI (EKVX NSCLC) was 3.47 µM. It also gave a GI50 (HCC-2998 colon) of 1.48 µM, a TGI (HCC-2998 colon) of 2.8 µM and a GI50 (HCT-116 colon) of 1.58 µM. The TGI (HCT-116 colon) was 2.92 µM, the GI50 (HCT-15 colon) was 1.56 µM and the TGI (HCT-15 colon) was 2.97 µM. It also gave a GI50 (HL-60(TB) leukemia) of 1.81 µM, a TGI (HL-60(TB) leukemia) of 3.87 µM and a GI50 (HOP-62 NSCLC) of 1.64 µM. For the same compound, the TGI (HOP-62 NSCLC) was 3.03 µM, the GI50 (HOP-92 NSCLC) was 1.55 µM and the TGI (HOP-92 NSCLC) was 3.18 µM. The GI50 (HS 578T breast) was 1.85 µM, the TGI (HS 578T breast) was 4.15 µM and the GI50 (HT29 colon) was 1.49 µM. It also gave a TGI (HT29 colon) of 2.81 µM, a GI50 (IGROV1 ovarian) of 1.3 µM and a TGI (IGROV1 ovarian) of 2.56 µM. The GI50 (K-562 leukemia) was 1.56 µM, the TGI (K-562 leukemia) was 3.12 µM and the GI50 (KM12 colon) was 1.53 µM. For the same compound, the TGI (KM12 colon) was 2.86 µM, the GI50 (LOX IMVI melanoma) was 1.17 µM and the TGI (LOX IMVI melanoma) was 2.4 µM. It also gave a GI50 (M14 melanoma) of 1.66 µM, a TGI (M14 melanoma) of 3.04 µM and a GI50 (MALME-3M melanoma) of 1.58 µM. For the same compound, the TGI (MALME-3M melanoma) was 3 µM, the GI50 (MCF7 breast) was 1.68 µM and the TGI (MCF7 breast) was 3.41 µM. For the same compound, the GI50 (MDA-MB-231 breast) was 1.49 µM, the TGI (MDA-MB-231 breast) was 2.82 µM and the GI50 (MDA-MB-435) was 1.92 µM. It also gave a TGI (MDA-MB-435) of 3.56 µM, a GI50 (MOLT-4 leukemia) of 1.14 µM and a TGI (MOLT-4 leukemia) of 2.84 µM. For the same compound, the GI50 (NCI-H226 lung) was 1.46 µM, the TGI (NCI-H226 lung) was 2.92 µM and the GI50 (NCI-H460 lung) was 2.02 µM. It also gave a TGI (NCI-H460 lung) of 4.15 µM, a GI50 (NCI-H522 lung) of 1.49 µM and a TGI (NCI-H522 lung) of 2.81 µM. The GI50 (NCI/ADR-RES ovarian) was 1.8 µM, the TGI (NCI/ADR-RES ovarian) was 3.95 µM and the GI50 (OVCAR-3 ovarian) was 1.39 µM. The TGI (OVCAR-3 ovarian) was 2.69 µM, the GI50 (OVCAR-4 ovarian) was 1.54 µM and the TGI (OVCAR-4 ovarian) was 3.17 µM. For the same compound, the GI50 (OVCAR-5 ovarian) was 1.65 µM, the TGI (OVCAR-5 ovarian) was 3.01 µM and the GI50 (OVCAR-8 ovarian) was 1.61 µM. For the same compound, the TGI (OVCAR-8 ovarian) was 3.27 µM, the GI50 (RPMI-8226 leukemia) was 1.58 µM and the TGI (RPMI-8226 leukemia) was 3.85 µM. For the same compound, the GI50 (RXF 393 renal) was 1.6 µM, the TGI (RXF 393 renal) was 3.04 µM and the GI50 (SF-268 CNS) was 1.85 µM. It also gave a TGI (SF-268 CNS) of 3.96 µM, a GI50 (SF-295 CNS) of 1.66 µM and a TGI (SF-295 CNS) of 3.06 µM. It also gave a GI50 (SF-539 CNS) of 1.59 µM, a TGI (SF-539 CNS) of 2.93 µM and a GI50 (SK-MEL-2 melanoma) of 1.64 µM. It also gave a TGI (SK-MEL-2 melanoma) of 2.99 µM, a GI50 (SK-MEL-28 melanoma) of 1.74 µM and a TGI (SK-MEL-28 melanoma) of 3.57 µM. For the same compound, the GI50 (SK-MEL-5 melanoma) was 1.6 µM, the TGI (SK-MEL-5 melanoma) was 2.94 µM and the GI50 (SK-OV-3 ovarian) was 1.58 µM. For the same compound, the TGI (SK-OV-3 ovarian) was 3.15 µM, the GI50 (SN12C renal) was 1.73 µM and the TGI (SN12C renal) was 3.1 µM. For the same compound, the GI50 (SNB-75 CNS) was 1.48 µM, the TGI (SNB-75 CNS) was 2.8 µM and the GI50 (SW-620 colon) was 1.63 µM. For the same compound, the TGI (SW-620 colon) was 2.98 µM, the GI50 (T-47D breast) was 1.24 µM and the TGI (T-47D breast) was 3.01 µM. For the same compound, the GI50 (TK-10 renal) was 1.77 µM, the TGI (TK-10 renal) was 3.15 µM and the GI50 (U251 CNS) was 1.61 µM. The TGI (U251 CNS) was 2.96 µM, the GI50 (UACC-257 melanoma) was 1.63 µM and the TGI (UACC-257 melanoma) was 3.03 µM. For the same compound, the GI50 (UACC-62 melanoma) was 1.61 µM, the TGI (UACC-62 melanoma) was 2.96 µM and the GI50 (UO-31 renal) was 1.51 µM. The TGI (UO-31 renal) was 2.83 µM.
